Values after ≈ are worked out from the molar mass of the structure shown.
How the values were obtained:
[1] = system: Bovine viral diarrhea virus 1; assay: Antiviral activity against Bovine viral diarrhea virus infected in human HuH7 cells assessed as inhibition of viral replication by luciferase reporter gene assay; format: functional, organism-based; conditions: Bovine viral diarrhea virus isolates and strains, Huh-7
[2] = Cytotoxicity against human HuH7 cells after 72 hrs by Alamar blue assay; format: cell-based, Huh-7
[3] = system: Hepatitis C virus; assay: Antiviral activity against HCV1b harboring NS5B infected in human HuH7 cells assessed as inhibition of viral replication after 72 hrs by FRET assay; format: functional, organism-based, Hepacivirus hominis; conditions: genotype 1b, Huh-7, 72 h
[4] = Solubility of the compound in phosphate buffer at pH 6.5; format: physicochemical

Row | Structure (SMILES) | EC50 [1] [µM] | CC50 at 72 h [2] [µM] | EC50 [3] [nM] | solubility [4] [µg/mL]
1 | O=C(Nc1ccc(/C=C/c2ccc(NC(=O)[C@@H]3CCCN3C(=O)Cc3ccccc3)cc2)cc1)[C@@H]1CCCN1C(=O)Cc1ccccc1 | > 10 | > 10 | 0.09 | –
2 | O=C(Nc1ccc(-c2ccc(NC(=O)[C@@H]3CCCN3C(=O)Cc3ccccc3)cc2)cc1)[C@@H]1CCCN1C(=O)Cc1ccccc1 | – | – | 205 | –
3 | O=C(Nc1ccc(CN2CCc3cc(NC(=O)[C@@H]4CCCN4C(=O)Cc4ccccc4)ccc3C2)cc1)[C@@H]1CCCN1C(=O)Cc1ccccc1 | > 10 | > 10 | 159 | –
4 | O=C(Nc1cccc(CN2CCc3ccc(NC(=O)[C@@H]4CCCN4C(=O)Cc4ccccc4)cc3C2)c1)[C@@H]1CCCN1C(=O)Cc1ccccc1 | > 10 | > 10 | 3890 | –
5 | O=C(Nc1ccc(-c2nnc(-c3ccc(NC(=O)[C@@H]4CCCN4C(=O)Cc4ccccc4)cc3)o2)cc1)[C@@H]1CCCN1C(=O)Cc1ccccc1 | > 10 | > 10 | 149 | –
6 | O=C(Nc1ccc(-c2cnc(-c3ccc(NC(=O)[C@@H]4CCCN4C(=O)Cc4ccccc4)cc3)o2)cc1)[C@@H]1CCCN1C(=O)Cc1ccccc1 | > 10 | > 10 | 2.38 | –
7 | O=C(Nc1ccc(-c2coc(-c3ccc(NC(=O)[C@@H]4CCCN4C(=O)Cc4ccccc4)cc3)n2)cc1)[C@@H]1CCCN1C(=O)Cc1ccccc1 | > 10 | > 10 | 1.32 | –
8 | O=C(Nc1ccc(-c2ccc(-c3ccc(NC(=O)[C@@H]4CCCN4C(=O)Cc4ccccc4)cc3)s2)cc1)[C@@H]1CCCN1C(=O)Cc1ccccc1 | > 10 | > 10 | 14.7 | –
9 | O=C(Nc1ccc(-c2c[nH]c(-c3ccc(NC(=O)[C@@H]4CCCN4C(=O)Cc4ccccc4)cc3)n2)cc1)[C@@H]1CCCN1C(=O)Cc1ccccc1 | > 10 | > 10 | 67.2 | –
10 | O=C(Nc1ccc(-c2cc(-c3ccc(NC(=O)[C@@H]4CCCN4C(=O)Cc4ccccc4)cc3)[nH]n2)cc1)[C@@H]1CCCN1C(=O)Cc1ccccc1 | > 10 | > 10 | 0.71 | –
11 | Cn1nc(-c2ccc(NC(=O)[C@@H]3CCCN3C(=O)Cc3ccccc3)cc2)cc1-c1ccc(NC(=O)[C@@H]2CCCN2C(=O)Cc2ccccc2)cc1 | > 10 | > 10 | 181 | –
12 | O=C(Nc1ccc(/C=C\c2ccc(NC(=O)[C@@H]3CCCN3C(=O)Cc3ccccc3)cc2)cc1)[C@@H]1CCCN1C(=O)Cc1ccccc1 | > 10 | > 10 | 12.4 | –
13 | O=C(Nc1ccc([C@H]2C[C@@H]2c2ccc(NC(=O)[C@@H]3CCCN3C(=O)Cc3ccccc3)cc2)cc1)[C@@H]1CCCN1C(=O)Cc1ccccc1 | > 10 | > 10 | 5.66 | 3 (≈ 4.58 µM)
14 | O=C(Nc1ccc([C@H]2C[C@H]2c2ccc(NC(=O)[C@@H]3CCCN3C(=O)Cc3ccccc3)cc2)cc1)[C@@H]1CCCN1C(=O)Cc1ccccc1 | > 10 | > 10 | 796 | –
15 | O=C(Nc1ccc(NC(=O)[C@@H]2CCCN2C(=O)Cc2ccccc2)cc1)c1ccc(NC(=O)[C@@H]2CCCN2C(=O)Cc2ccccc2)cc1 | > 10 | > 10 | 11 | –
16 | CN(C(=O)c1ccc(NC(=O)[C@@H]2CCCN2C(=O)Cc2ccccc2)cc1)c1ccc(NC(=O)[C@@H]2CCCN2C(=O)Cc2ccccc2)cc1 | > 10 | > 10 | 6250 | –
17 | O=C(Nc1ccc(N2CCc3cc(NC(=O)[C@@H]4CCCN4C(=O)Cc4ccccc4)ccc3C2)nc1)[C@@H]1CCCN1C(=O)Cc1ccccc1 | > 10 | > 10 | 1.74 | –
18 | O=C(Nc1ccc(-c2nc3ccc(NC(=O)[C@@H]4CCCN4C(=O)Cc4ccccc4)cc3[nH]2)cc1)[C@@H]1CCCN1C(=O)Cc1ccccc1 | > 10 | > 10 | 1050 | –
19 | O=C(Nc1ccc(CCc2ccc(NC(=O)[C@@H]3CCCN3C(=O)Cc3ccccc3)cc2)cc1)[C@@H]1CCCN1C(=O)Cc1ccccc1 | > 10 | > 10 | 6.01 | –
20 | O=C(Nc1ccc(COc2ccc(NC(=O)[C@@H]3CCCN3C(=O)Cc3ccccc3)cc2)cc1)[C@@H]1CCCN1C(=O)Cc1ccccc1 | > 10 | > 10 | 97.8 | –
21 | O=C(Nc1ccc(C#Cc2ccc(NC(=O)[C@@H]3CCCN3C(=O)Cc3ccccc3)cc2)cc1)[C@@H]1CCCN1C(=O)Cc1ccccc1 | > 10 | > 10 | 6.24 | –
22 | O=C(Nc1ccc(-c2nc[nH]c2-c2ccc(NC(=O)[C@@H]3CCCN3C(=O)Cc3ccccc3)cc2)cc1)[C@@H]1CCCN1C(=O)Cc1ccccc1 | > 10 | > 10 | 20.9 | –
23 | O=C(Nc1ccc(-c2nn[nH]c2-c2ccc(NC(=O)[C@@H]3CCCN3C(=O)Cc3ccccc3)cc2)cc1)[C@@H]1CCCN1C(=O)Cc1ccccc1 | > 10 | > 10 | 8.18 | –
24 | O=C(Nc1ccc(-c2c[nH]nc2-c2ccc(NC(=O)[C@@H]3CCCN3C(=O)Cc3ccccc3)cc2)cc1)[C@@H]1CCCN1C(=O)Cc1ccccc1 | > 10 | > 10 | 4.57 | –
25 | O=C(Nc1ccc(Cc2ccc(NC(=O)[C@@H]3CCCN3C(=O)Cc3ccccc3)cc2)cc1)[C@@H]1CCCN1C(=O)Cc1ccccc1 | > 10 | > 10 | 1700 | –
26 | O=C(Nc1ccc(Oc2ccc(NC(=O)[C@@H]3CCCN3C(=O)Cc3ccccc3)cc2)cc1)[C@@H]1CCCN1C(=O)Cc1ccccc1 | > 10 | > 10 | 1990 | –
27 | O=C(c1ccc(NC(=O)[C@@H]2CCCN2C(=O)Cc2ccccc2)cc1)c1ccc(NC(=O)[C@@H]2CCCN2C(=O)Cc2ccccc2)cc1 | > 10 | > 10 | 3950 | –
28 | CC(C)(c1ccc(NC(=O)[C@@H]2CCCN2C(=O)Cc2ccccc2)cc1)c1ccc(NC(=O)[C@@H]2CCCN2C(=O)Cc2ccccc2)cc1 | > 10 | > 10 | 638 | –
29 | O=C(Nc1ccc(CCCc2ccc(NC(=O)[C@@H]3CCCN3C(=O)Cc3ccccc3)cc2)cc1)[C@@H]1CCCN1C(=O)Cc1ccccc1 | > 10 | > 10 | 36.1 | –
30 | CN1Cc2cc(NC(=O)[C@@H]3CCCN3C(=O)Cc3ccccc3)ccc2CC1c1ccc(NC(=O)[C@@H]2CCCN2C(=O)Cc2ccccc2)cc1 (mixture of isomers) | > 10 | > 10 | 13.9 | 135

Source: ChEMBL document CHEMBL2311483, “HCV NS5A replication complex inhibitors. Part 3: discovery of potent analogs with distinct core topologies” (Bioorg Med Chem Lett, 2013)
